Reference: ChEMBL document CHEMBL1201862, “PubChem BioAssay data set” (2004)
Active and inactive are the calls of the source.

Columns and labels:
Streptococcus = assay: Group A Streptococcus viability loss, dose response, counter-screen for streptokinase expression inhibitor project, luminescence, BacTiterGlo (AID 1915); assay type: functional, organism-based;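 note: potency for reduction of bacterial viability or growth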
[1] = tested on: Streptococcus sp. 'group A'; assay: growth inhibition of control SK(-) GAS strain, dose response, counter-screen for streptokinase expression inhibitor project, luminescence, kanamycin, BacTiterGlo, confirmation (AID 1900); assay type: functional, organism-based
[2] = target: T1, Endoribonuclease toxin MazF (Escherichia coli K-12, UniProt P0AE70); assay: fluorescent RNA oligo signal without MazF, dose response, counter-screen for MazEF activator project, biochemical, fluorescence, single-stranded RNase substrate (AID 588502); assay type: functional
T1 sequence (P0AE70 whole entry): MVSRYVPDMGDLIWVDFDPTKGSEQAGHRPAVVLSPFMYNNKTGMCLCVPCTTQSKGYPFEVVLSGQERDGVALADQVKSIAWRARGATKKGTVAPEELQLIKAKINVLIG

H4 = assay: Luminescence Cell-Based Dose Response HTS to Identify Activators of 5'UTR Stem-Loop Driven Prion Protein mRNA Translation in H4 Neuroglioblastoma Cells. [Related pubchem assays: 1829 (Project Summary), 1814 (Primary HTS)]; assay type: functional; details: Homo sapiens
cells [3] = assay type: functional, cell-based
[4] = Luminescence Cell-Based Dose Confirmation HTS to Identify Activators of 5'UTR Stem-Loop Driven Alpha-Synuclein mRNA Translation in H4 Neuroglioblastoma Cells. [Related pubchem assays: 1829 (Project Summary), 1814 (Primary HTS)]; assay type: functional
[5] = target: T1, Endoribonuclease toxin MazF; assay: MazF toxin RNase activators, dose response, biochemical, fluorescence, single-stranded RNA substrate, uHTS hits (AID 588481); assay type: functional
[6] = Luminescence Cell-Based Dose Response HTS to Identify Activators of Luciferase Translation or Activity in H4 […] Cells. [Related pubchem assays: 1829 (Project Summary), 1814 (Primary HTS)]; assay type: functional
[7] = target: T2, Nuclear receptor subfamily 0 group B member 1 (Homo sapiens, UniProt P51843); assay type: functional, cell-based;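 note: HEK293T cells transfected with SF-1 and DAX-1 plus StAR promoter luciferase reporter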
T2 sequence (P51843 whole entry): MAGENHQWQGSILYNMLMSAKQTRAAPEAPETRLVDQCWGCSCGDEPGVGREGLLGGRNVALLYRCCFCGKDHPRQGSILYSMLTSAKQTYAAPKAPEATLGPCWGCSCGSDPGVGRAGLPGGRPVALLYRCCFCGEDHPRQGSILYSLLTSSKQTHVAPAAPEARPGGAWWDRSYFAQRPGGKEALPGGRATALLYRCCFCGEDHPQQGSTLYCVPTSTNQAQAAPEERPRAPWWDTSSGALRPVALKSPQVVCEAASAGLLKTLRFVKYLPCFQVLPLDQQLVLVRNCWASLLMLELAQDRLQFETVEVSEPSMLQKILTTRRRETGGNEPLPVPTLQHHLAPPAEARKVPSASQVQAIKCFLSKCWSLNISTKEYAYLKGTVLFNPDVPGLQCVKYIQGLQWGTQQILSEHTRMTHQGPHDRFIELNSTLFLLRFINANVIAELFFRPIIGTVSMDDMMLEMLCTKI

[8] = target: T3, Small ubiquitin-related modifier 1 (Homo sapiens, UniProt P63165); assay: inhibitors of SUMO1 partner interactions, dose response, biochemical, FRET (AID 624383); assay type: functional; details: read-out: IC50_Mean
[9] = target: T3, Small ubiquitin-related modifier 1; assay: inhibitors of SUMO1 peptide binding, dose response, biochemical, fluorescence polarization, uHTS hits (AID 624382); assay type: functional; details: read-out: IC50_Mean
[10] = target: T4, Sentrin-specific protease 8 (Homo sapiens, UniProt Q96LD8); assay type: functional
T4 sequence (Q96LD8 whole entry): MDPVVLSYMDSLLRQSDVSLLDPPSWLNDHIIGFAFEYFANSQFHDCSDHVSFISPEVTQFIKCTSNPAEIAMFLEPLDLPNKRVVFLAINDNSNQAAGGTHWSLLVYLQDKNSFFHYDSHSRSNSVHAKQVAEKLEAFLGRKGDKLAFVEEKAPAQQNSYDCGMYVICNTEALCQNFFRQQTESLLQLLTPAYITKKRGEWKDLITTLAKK

[11] = target: T4, Sentrin-specific protease 8; assay type: functional; remark: listed apart in the source
[12] = target: T5, Heat shock factor protein 1 (Mus musculus, UniProt P38532); assay: HSF1 potentiators in luciferase reporter cells, confirmation, cell-based, NIH3T3, luminescence, dose retest (AID 435004); assay type: functional;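 note: stress induced by proteasome inhibitor MG132 added 30 min after compound; luciferase reporter driven by HSF1 response element in NIH3T3 cells; actives raise luminescence as potentiators of the MG132 stress response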
T5 sequence (P38532 whole entry): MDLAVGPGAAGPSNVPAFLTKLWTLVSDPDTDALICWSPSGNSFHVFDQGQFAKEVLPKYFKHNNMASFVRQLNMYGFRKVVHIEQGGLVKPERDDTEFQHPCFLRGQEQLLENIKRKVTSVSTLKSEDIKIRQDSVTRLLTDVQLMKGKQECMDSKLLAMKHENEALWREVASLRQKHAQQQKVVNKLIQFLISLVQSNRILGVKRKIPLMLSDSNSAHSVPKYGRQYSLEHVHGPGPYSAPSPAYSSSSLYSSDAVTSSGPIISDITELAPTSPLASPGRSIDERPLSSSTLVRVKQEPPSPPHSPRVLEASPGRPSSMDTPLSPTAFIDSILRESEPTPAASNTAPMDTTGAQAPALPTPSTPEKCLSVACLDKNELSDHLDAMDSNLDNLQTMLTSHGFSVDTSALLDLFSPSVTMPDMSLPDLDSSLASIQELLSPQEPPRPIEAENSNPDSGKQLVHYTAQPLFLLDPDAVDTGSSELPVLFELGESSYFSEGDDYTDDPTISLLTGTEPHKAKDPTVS

Genome polyprotein = Genome polyprotein (dengue virus type 2, UniProt P29990); assay: Dengue-2 NS5 methyltransferase inhibitors, primary screen, biochemical, confirmation dose response (AID 588689); assay type: functional
[13] = target: T6, Probable nicotinate-nucleotide adenylyltransferase (Staphylococcus aureus (strain N315), UniProt P65502); assay type: functional, Staphylococcus aureus subsp. aureus N315;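 for IC50 Mean: confirmatory dose-response retesting of NadD inhibitor hits first found in an ultra-high-throughput screen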
[14] = target: Induced myeloid leukemia cell differentiation protein Mcl-1 (Homo sapiens, UniProt Q07820); assay type: functional
[15] = target: T7, Rac GTPase-activating protein 1 (Homo sapiens, UniProt Q9H0H5); assay: MgcRacGAP GTPase-activating activity inhibitors, confirmation, biochemical, ADP Hunter fluorescence, primary and confirmatory (AID 624330); assay type: functional
T7 sequence (Q9H0H5 whole entry): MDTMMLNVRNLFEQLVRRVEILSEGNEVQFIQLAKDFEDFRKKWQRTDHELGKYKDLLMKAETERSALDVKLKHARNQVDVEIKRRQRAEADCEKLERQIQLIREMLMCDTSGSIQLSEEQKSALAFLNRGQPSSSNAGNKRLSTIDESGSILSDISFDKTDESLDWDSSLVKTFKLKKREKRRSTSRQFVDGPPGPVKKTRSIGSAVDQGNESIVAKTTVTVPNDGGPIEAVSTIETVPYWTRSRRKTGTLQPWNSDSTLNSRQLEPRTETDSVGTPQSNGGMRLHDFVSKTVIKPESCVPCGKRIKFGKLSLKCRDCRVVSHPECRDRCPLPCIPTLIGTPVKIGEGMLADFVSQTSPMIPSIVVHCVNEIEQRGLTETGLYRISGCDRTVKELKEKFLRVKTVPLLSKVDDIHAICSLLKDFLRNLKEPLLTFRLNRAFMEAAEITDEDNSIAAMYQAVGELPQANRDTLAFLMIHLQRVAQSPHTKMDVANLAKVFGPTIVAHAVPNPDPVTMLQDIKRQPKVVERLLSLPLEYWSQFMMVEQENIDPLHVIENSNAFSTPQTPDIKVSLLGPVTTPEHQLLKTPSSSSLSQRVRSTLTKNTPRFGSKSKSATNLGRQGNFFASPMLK

[16] = target: Glucose-6-phosphate 1-dehydrogenase (Homo sapiens, UniProt P11413); assay: human G6PD enzyme inhibitors, dose response, selectivity assay for P. falciparum G6PD inhibitor project, biochemical, fluorescence (AID 504792); assay type: functional
[17] = target: T6, Probable nicotinate-nucleotide adenylyltransferase; assay type: functional, Staphylococcus aureus subsp. aureus N315; details: read-out: IC50_Mean
[18] = target: DNA (cytosine-5)-methyltransferase 1 (Homo sapiens, UniProt P26358); assay: DNMT1 methyltransferase inhibitors, confirmation, biochemical, fluorescent molecular beacon (AID 602386); assay type: functional
NS3 = NS3 (Hepatitis C virus, UniProt A3EZJ3); assay: PubChem AID 2173; set-up: species or system Hepacivirus hominis
[19] = target: T8, Carboxy-terminal domain RNA polymerase II polypeptide A small phosphatase 1 (Homo sapiens, UniProt Q9GZU7); assay: inhibitors of CTDSP1, concentration-response testing, biochemical assay, absorbance-based, actives from ultra-high-throughput screening (AID 540297); assay type: functional
T8 sequence (Q9GZU7 whole entry): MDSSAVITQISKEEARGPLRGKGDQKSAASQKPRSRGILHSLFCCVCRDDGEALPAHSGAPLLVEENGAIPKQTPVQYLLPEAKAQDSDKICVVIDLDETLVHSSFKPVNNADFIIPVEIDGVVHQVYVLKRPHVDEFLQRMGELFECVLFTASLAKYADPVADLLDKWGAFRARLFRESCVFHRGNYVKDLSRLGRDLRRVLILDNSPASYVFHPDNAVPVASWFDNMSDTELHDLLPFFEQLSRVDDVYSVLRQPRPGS

cells [20] = assay type: functional, cell-based; remark: listed apart in the source
[21] = target: T9, Trace amine-associated receptor 1 (Homo sapiens, UniProt Q96RJ0); assay: Fluorescence-based cell-based high throughput dose response assay to identify agonists of the human trace amine associated receptor 1 (TAAR1).; assay type: functional
T9 sequence (Q96RJ0 whole entry): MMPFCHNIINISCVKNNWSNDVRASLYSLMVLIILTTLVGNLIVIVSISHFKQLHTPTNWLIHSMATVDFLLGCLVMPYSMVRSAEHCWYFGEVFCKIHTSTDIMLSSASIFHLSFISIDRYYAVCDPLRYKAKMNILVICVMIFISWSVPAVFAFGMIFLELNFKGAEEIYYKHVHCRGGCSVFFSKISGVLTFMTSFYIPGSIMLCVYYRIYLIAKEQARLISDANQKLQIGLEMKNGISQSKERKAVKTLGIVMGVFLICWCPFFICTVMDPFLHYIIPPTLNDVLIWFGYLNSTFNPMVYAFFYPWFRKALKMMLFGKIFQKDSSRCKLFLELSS

[22] = target: T9, Trace amine-associated receptor 1; assay: Counterscreen for agonists of the human trace amine associated receptor 1 (hTAAR1): Fluorescence-based cell-based high throughput dose response assay to identify hTAAR1 agonist that also desensitize TAAR1 receptor response.; assay type: functional
cells [23] = assay type: functional, cell-based; remark: listed apart in the source
Albumin = Albumin (Bos taurus, UniProt P02769); assay: Counterscreen for inhibitors of T-cell receptor (TCR)-CD3 interaction: Fluorescence-based biochemical high throughput dose response assay to identify inhibitors of T-cell receptor (TCR)-CD3 interaction using a TAMRA-labeled BSA probe.; assay type: functional
Sequence of Albumin (P02769 whole entry): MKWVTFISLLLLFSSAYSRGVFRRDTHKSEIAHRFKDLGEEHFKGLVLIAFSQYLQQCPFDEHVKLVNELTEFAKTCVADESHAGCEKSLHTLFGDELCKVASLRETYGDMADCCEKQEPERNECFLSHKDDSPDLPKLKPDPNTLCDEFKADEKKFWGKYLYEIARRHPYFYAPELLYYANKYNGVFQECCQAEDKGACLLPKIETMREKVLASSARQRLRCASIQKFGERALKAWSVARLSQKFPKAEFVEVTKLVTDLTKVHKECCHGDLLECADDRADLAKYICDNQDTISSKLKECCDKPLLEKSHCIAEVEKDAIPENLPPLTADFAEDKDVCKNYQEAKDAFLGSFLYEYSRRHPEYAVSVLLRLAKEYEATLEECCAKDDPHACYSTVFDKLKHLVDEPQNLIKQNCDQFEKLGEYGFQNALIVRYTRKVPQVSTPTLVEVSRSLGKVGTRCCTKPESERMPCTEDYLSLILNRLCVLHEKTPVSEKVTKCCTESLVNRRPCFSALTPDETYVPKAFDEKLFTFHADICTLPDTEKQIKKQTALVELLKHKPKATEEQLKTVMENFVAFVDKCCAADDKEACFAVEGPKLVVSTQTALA

T3 sequence (P63165 whole entry): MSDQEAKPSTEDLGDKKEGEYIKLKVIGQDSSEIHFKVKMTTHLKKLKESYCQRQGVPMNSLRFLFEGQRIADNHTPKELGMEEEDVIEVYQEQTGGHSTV
T6 sequence (P65502 whole entry): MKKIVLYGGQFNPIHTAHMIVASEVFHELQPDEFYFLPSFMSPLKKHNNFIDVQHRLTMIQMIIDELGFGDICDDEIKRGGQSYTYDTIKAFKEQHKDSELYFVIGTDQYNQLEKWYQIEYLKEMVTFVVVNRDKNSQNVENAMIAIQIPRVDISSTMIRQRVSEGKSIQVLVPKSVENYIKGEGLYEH
Sequence of Induced myeloid leukemia cell differentiation protein Mcl-1 (Q07820 whole entry): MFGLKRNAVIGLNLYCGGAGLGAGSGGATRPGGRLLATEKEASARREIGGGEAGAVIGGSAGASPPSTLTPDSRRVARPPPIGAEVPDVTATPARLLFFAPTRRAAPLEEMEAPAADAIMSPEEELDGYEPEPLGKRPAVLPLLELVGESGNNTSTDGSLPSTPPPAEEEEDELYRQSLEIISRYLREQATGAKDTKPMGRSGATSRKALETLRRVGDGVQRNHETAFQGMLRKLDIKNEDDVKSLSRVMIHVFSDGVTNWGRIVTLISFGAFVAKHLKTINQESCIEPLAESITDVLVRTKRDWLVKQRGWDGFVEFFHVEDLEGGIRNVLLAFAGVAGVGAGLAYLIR
Sequence of NS3 (A3EZJ3 whole entry, the tested form may be a part): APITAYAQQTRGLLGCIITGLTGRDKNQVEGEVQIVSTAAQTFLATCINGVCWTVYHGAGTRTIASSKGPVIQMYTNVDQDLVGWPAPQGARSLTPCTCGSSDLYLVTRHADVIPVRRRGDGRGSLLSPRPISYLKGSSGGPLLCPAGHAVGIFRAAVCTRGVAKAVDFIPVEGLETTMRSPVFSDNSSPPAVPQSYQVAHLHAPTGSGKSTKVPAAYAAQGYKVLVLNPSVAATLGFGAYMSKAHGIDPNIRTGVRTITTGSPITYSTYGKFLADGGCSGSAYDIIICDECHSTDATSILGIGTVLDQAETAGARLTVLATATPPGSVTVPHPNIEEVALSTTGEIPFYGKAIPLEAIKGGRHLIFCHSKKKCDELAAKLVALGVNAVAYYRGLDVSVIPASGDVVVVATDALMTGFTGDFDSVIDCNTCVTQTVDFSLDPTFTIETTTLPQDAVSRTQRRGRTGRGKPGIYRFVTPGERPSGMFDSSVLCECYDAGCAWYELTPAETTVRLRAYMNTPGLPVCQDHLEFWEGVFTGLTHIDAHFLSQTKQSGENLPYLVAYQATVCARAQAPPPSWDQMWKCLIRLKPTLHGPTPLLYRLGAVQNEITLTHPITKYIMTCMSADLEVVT
Sequence of Glucose-6-phosphate 1-dehydrogenase (P11413 whole entry): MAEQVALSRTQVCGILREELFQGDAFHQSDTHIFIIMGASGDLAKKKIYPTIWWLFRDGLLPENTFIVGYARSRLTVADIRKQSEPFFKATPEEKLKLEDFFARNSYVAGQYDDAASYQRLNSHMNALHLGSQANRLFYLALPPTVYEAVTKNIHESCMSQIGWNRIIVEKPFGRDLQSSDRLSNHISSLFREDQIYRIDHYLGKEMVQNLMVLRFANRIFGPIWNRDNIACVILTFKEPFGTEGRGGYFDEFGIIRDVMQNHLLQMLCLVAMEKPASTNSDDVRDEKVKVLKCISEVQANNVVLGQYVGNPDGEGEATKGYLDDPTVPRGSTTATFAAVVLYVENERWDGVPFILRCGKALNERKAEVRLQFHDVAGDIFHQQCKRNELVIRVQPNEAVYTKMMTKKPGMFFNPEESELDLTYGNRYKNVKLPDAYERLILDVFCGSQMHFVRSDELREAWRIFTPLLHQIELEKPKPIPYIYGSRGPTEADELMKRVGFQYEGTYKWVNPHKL
Sequence of Genome polyprotein (P29990 2492-3391 limits assumed): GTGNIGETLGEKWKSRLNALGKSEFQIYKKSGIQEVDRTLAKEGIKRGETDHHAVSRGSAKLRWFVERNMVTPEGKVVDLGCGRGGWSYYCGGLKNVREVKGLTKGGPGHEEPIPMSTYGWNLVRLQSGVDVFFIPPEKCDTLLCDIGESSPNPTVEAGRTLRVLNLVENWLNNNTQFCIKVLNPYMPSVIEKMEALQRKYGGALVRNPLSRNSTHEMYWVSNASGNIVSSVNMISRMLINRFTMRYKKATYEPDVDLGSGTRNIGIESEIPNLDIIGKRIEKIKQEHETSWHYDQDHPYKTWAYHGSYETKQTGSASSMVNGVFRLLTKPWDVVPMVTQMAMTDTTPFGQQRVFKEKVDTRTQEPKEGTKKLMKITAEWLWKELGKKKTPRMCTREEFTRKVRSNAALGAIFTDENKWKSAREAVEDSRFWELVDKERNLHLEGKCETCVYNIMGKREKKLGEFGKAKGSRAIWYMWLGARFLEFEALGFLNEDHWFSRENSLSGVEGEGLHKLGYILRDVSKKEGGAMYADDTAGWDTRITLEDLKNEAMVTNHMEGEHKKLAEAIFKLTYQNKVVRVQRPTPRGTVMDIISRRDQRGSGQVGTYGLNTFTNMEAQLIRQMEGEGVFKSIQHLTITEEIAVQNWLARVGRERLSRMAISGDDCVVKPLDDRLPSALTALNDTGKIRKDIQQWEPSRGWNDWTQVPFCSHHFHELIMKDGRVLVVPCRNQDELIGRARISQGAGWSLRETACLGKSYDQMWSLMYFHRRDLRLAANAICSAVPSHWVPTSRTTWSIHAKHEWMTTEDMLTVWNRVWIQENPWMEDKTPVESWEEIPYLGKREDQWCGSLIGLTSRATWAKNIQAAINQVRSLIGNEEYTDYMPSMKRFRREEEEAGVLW
Sequence of DNA (cytosine-5)-methyltransferase 1 (P26358 whole entry): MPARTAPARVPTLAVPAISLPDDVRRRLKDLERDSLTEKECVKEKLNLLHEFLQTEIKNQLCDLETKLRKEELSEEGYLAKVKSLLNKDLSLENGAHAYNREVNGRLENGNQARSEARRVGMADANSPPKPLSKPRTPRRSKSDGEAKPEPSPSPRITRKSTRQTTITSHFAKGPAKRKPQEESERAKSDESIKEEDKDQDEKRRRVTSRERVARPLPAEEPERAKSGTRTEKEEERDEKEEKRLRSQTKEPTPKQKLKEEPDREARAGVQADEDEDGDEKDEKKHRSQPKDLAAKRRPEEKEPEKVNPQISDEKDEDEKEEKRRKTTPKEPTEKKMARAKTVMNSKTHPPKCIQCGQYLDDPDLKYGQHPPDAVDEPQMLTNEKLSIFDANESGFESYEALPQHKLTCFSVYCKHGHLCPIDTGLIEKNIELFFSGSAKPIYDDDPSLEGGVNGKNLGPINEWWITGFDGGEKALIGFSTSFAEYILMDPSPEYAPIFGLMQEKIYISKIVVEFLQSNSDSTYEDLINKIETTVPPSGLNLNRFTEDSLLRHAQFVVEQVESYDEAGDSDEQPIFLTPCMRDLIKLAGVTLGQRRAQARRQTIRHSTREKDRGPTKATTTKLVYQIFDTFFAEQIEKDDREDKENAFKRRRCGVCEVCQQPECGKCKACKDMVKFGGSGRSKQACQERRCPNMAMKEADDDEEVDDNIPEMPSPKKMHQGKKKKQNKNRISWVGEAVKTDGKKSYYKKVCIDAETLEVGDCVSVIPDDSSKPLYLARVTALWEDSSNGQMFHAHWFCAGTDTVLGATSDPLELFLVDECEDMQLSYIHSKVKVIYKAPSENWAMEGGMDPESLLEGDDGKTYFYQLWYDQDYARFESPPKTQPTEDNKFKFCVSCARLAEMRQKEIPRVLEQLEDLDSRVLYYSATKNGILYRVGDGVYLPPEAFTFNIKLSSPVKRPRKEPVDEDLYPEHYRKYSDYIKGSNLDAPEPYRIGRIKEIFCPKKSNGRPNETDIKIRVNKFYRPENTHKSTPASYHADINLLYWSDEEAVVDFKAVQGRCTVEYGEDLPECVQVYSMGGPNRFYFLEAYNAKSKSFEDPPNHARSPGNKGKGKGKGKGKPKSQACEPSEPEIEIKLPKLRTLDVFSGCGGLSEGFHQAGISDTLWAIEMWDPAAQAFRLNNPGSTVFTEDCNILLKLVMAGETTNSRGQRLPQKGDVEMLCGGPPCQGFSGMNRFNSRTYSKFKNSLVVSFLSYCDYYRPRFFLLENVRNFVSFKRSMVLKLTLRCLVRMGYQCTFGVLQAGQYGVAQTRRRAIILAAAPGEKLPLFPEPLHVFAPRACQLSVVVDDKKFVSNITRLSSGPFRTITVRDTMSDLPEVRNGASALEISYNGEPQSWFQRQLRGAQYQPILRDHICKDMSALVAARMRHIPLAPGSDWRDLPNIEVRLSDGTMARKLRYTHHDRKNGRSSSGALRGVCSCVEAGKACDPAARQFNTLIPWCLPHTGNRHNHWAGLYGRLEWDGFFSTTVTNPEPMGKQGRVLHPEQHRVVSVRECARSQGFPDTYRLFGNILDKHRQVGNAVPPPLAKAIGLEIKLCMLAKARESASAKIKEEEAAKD

Structure (SMILES): Cc1ccc2nc(N3C(=O)C(O)=C(C(=O)c4ccco4)C3c3cccs3)sc2c1 (stereo unspecified)
- EC50 (Streptococcus): 4.98 µM (active)
- EC50 [1]: 2.82 µM (active)
- EC50 [2]: > 99 µM (inactive)
- EC50 (H4): > 120 µM (not active)
- IC50 (cells [3]): > 67.5 µM (inactive)
- EC50 [4]: > 120 µM (not active)
- EC50 [5]: > 99 µM (inactive)
- EC50 [6]: > 120 µM (not active)
- IC50 [7]: > 67.5 µM (inactive)

Structure (SMILES): Cc1ccc(C2(C)NC(=O)N(CC(=O)Nc3ccc4[nH]c(=O)[nH]c4c3)C2=O)cc1 (stereo unspecified)
- IC50 [8]: 16.5 µM (active)
- IC50 [9]: > 66.6 µM (inactive)

Structure (SMILES): COc1cccc(C2=NOC(C(=O)N3CCc4ccccc4C3)C2)c1 (stereo unspecified)
- IC50 [10]: 45.2 µM (active)
- IC50 [11]: 9.21 µM (active)

Structure (SMILES): Cc1ccc(/C=C/C(=O)Nc2ccc([N+](=O)[O-])c(NC(=O)/C=C/c3ccc(C)o3)c2)o1
- EC50 [12]: 228 µM (active)
- IC50 (Genome polyprotein): > 100 µM (active)
- IC50 [13]: 5.24 µM (active)
- IC50 [14]: 2.12 µM (active)
- IC50 [15]: 165 µM (active)
- IC50 [16]: > 80 µM (inactive)
- IC50 [17]: 15.3 µM (active)
- IC50 [18]: 7.18 µM (active)
- IC50 (NS3): 41.3 µM (not active)
- IC50 [19]: 5.89 µM (active)

Structure (SMILES): COCCn1nnnc1C(c1ccc(O)c(OC)c1)N1CCc2ccccc2C1 (stereo unspecified)
- IC50 (cells [20]): > 29.9 µM (inactive)
- IC50 [14]: 7.06 µM (active)
- EC50 [21]: 0.695 µM (active)
- IC50 [22]: 3.75 µM (active)
- EC50 (cells [23]): > 29.9 µM (inactive)

Structure (SMILES): CC1=NN(c2ccc(C)cc2C)C(=O)C1C(c1ccccc1O)C1C(=O)N(c2ccc(C)cc2C)N=C1C (stereo unspecified)
- IC50 [10]: 7.5 µM (active)
- IC50 [11]: 18.9 µM (active)

Structure (SMILES): O=C(CSc1ccc(-c2ccncc2)nn1)c1ccc(Cl)cc1
- IC50 [8]: 12.1 µM (active)
- IC50 [9]: > 66.6 µM (inactive)

Structure (SMILES): O=C(CC1C(=O)NCCN1CCCc1ccccc1)NCCc1ccccc1F (stereo unspecified)
- IC50 (cells [20]): > 29.9 µM (inactive)
- EC50 [21]: 1.71 µM (active)
- IC50 [22]: 7.17 µM (active)
- EC50 (cells [23]): > 29.9 µM (inactive)

Structure (SMILES): Cc1cc([N+](=O)[O-])cc(/C=N/n2c(C)nc3ccccc3c2=O)c1O
- EC50 (Streptococcus): 7.71 µM (active)
- EC50 [1]: 8.39 µM (active)
- IC50 (Albumin): > 94 µM (inactive)

Structure (SMILES): C/C(=N/NC(=O)c1cccs1)c1cccc(N)c1
- IC50 (cells [3]): > 67.6 µM (inactive)
- IC50 [7]: > 67.6 µM (inactive)
